Experimental findings from paper PMC10763615, “Identification and engineering of potent cyclic peptides with selective or promiscuous binding through biochemical profiling and bioinformatic data analysis” (RSC Chemical Biology, 2023) are described below.

Holding throughout (type): binding
For one test, the target named is T1, FGF-R1C ECD (Homo sapiens, UniProt P11362).
T1 sequence (P11362 22-376 limits assumed): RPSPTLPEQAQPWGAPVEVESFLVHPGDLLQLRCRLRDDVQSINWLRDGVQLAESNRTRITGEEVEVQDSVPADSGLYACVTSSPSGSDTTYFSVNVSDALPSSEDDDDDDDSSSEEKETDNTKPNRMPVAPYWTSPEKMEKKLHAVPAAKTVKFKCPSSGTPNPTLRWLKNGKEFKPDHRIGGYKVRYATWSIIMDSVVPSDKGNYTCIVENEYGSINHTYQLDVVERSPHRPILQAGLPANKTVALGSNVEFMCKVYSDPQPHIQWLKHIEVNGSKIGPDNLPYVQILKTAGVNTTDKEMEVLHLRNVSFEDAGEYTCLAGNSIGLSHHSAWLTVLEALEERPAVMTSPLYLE
Description: biochemical. More on the design: DNA constructs for the extracellular domain (ECD) of human FGF-; HPC4 (C); made in house; host or cells: HEK 293-6E. An outline of the steps: (§1)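 Biolayer interferometry with biotinylated FGF-R ECD on streptavidin biosensors in PBS pH 7.4, 0.05% Tween-20, 0.01% BSA. Multi-concentration: purified peptide dilution series fitted to a multi-point KD model.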

A further test concerns the target T2, FGF-R3C ECD (Homo sapiens, UniProt P22607).
T2 sequence (P22607 23-375 limits assumed): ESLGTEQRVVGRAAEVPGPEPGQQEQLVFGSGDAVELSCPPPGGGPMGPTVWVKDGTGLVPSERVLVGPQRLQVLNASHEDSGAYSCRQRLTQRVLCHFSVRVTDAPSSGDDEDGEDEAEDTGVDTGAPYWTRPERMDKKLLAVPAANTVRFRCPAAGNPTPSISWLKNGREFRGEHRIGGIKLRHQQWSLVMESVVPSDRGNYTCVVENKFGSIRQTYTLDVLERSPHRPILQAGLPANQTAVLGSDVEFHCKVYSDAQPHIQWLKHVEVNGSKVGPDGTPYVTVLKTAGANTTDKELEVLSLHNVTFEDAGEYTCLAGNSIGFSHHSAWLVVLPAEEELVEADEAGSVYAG
Description: biochemical. Also noted: DNA constructs for the extracellular domain (ECD) of human FGF-; HPC4 (C); made in house; host or cells: HEK 293-6E. An outline of the steps:
as §1

The target of the next test is T3, FGF-R4 ECD (Homo sapiens, UniProt P22455).
T3 construct: DNA constructs for the extracellular domain (ECD) of human FGF-; HPC4 (C); made in house; host or cells: HEK 293-6E
T3 sequence (P22455 22-369 limits assumed): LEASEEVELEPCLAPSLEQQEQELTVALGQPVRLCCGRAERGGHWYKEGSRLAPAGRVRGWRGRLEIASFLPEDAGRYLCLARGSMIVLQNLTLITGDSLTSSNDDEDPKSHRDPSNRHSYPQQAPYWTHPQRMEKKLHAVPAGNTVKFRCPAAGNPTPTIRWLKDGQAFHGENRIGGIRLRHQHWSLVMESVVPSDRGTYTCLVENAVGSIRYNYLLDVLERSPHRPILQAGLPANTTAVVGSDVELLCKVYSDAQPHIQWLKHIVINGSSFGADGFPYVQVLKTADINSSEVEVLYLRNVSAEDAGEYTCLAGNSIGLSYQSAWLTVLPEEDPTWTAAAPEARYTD
Description: single concentration BLI of crude peptides. An outline of the steps:
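Biotinylated FGF-R ECD on streptavidin biosensors was dipped into ~1 μM crude peptide in PBS pH7.4 with 0.05% Tween-20 and 0.01% BSA for association, then into buffer for dissociation, and followed by BLI. Fitted KD values were adjusted for peptide concentration measured by UPLC-CAD.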

[1] abbreviates: crude NNK peptides, single concentration BLI (Table S3), read-out: KD (4).

Like-named read-outs stand apart in the source and are kept apart here. Positions of bridges follow the written chain, without caps; N, C: chain ends. Residues, ends and D or L forms follow the SMILES beside them. Where only a bound is given, the exact number is not on record here.

A word on the Kd: it is the concentration at which binding is half-saturated.

For the molecule `CC[C@H](C)[C@@H]1NC(=O)[C@H](CCCCN)NC(=O)[C@H](Cc2ccc(O)cc2)NC(=O)[C@H]([C@@H](C)CC)NC(=O)[C@H]([C@@H](C)O)NC(=O)[C@H]([C@@H](C)CC)NC(=O)[C@H](Cc2c[nH]cn2)NC(=O)[C@@H](NC(=O)[C@H](CCSC)NC(C)=O)CSSC[C@@H](C(=O)NCC(=O)N[C@@H](CO)C(=O)NCC(=O)N[C@@H](CO)C(=O)N[C@@H](CC(=O)O)C(=O)N[C@@H](Cc2ccc(O)cc2)C(=O)N[C@@H](CCCCN)C(=O)N[C@@H](CC(=O)O)C(=O)N[C@@H](CC(=O)O)C(=O)N[C@@H](CC(=O)O)C(=O)N[C@@H](CC(=O)O)C(=O)N[C@@H](CCCCN)C(N)=O)NC(=O)[C@H](Cc2ccc(O)cc2)NC(=O)[C@H](CCCNC(=N)N)NC(=O)[C@H](CC(C)C)NC1=O` (Ac-MCHITIYKILRYCGSGSDYKDDDDK-NH2; disulfide 2-13), the Kd is above 10000 nM on FGF-R1C ECD, above 10000 nM at FGF-R3C ECD and 124 nM on FGF-R4 ECD (setting [1]).
As to `CC[C@H](C)[C@@H]1NC(=O)[C@@H](NC(=O)[C@H](CCSC)NC(C)=O)CSSC[C@@H](C(=O)NCC(=O)N[C@@H](CO)C(=O)NCC(=O)N[C@@H](CO)C(=O)N[C@@H](CC(=O)O)C(=O)N[C@@H](Cc2ccc(O)cc2)C(=O)N[C@@H](CCCCN)C(=O)N[C@@H](CC(=O)O)C(=O)N[C@@H](CC(=O)O)C(=O)N[C@@H](CC(=O)O)C(=O)N[C@@H](CC(=O)O)C(=O)N[C@@H](CCCCN)C(N)=O)NC(=O)[C@H](C(C)C)NC(=O)[C@H](C)NC(=O)[C@H](Cc2c[nH]c3ccccc23)NC(=O)[C@H](Cc2ccccc2)NC(=O)[C@H](CC(=O)O)NC(=O)[C@H](CO)NC(=O)[C@H](CC(C)C)NC(=O)[C@H](CCCNC(=N)N)NC(=O)[C@H](Cc2ccc(O)cc2)NC1=O` (Ac-MCIYRLSDFWAVCGSGSDYKDDDDK-NH2; disulfide 2-13), the results for the dissociation constant (Kd) on FGF-R1C ECD, at FGF-R3C ECD and on FGF-R4 ECD (setting [1]) were 21 nM, 49 nM and 133 nM, respectively.
For `CC[C@H](C)[C@@H]1NC(=O)[C@H](Cc2ccc(O)cc2)NC(=O)[C@H](C)NC(=O)[C@H](C(C)C)NC(=O)[C@H](Cc2ccc(O)cc2)NC(=O)CNC(=O)[C@H](Cc2c[nH]cn2)NC(=O)[C@H]([C@@H](C)CC)NC(=O)[C@H]([C@@H](C)CC)NC(=O)[C@H](CO)NC(=O)[C@H](CC(C)C)NC(=O)[C@H](CC(N)=O)NC(=O)[C@@H](NC(=O)[C@H](CCSC)NC(C)=O)CSSC[C@@H](C(=O)NCC(=O)N[C@@H](CO)C(=O)NCC(=O)N[C@@H](CO)C(=O)N[C@@H](CC(=O)O)C(=O)N[C@@H](Cc2ccc(O)cc2)C(=O)N[C@@H](CCCCN)C(=O)N[C@@H](CC(=O)O)C(=O)N[C@@H](CC(=O)O)C(=O)N[C@@H](CC(=O)O)C(=O)N[C@@H](CC(=O)O)C(=O)N[C@@H](CCCCN)C(N)=O)NC1=O` (Ac-MCNLSIIHGYVAYICGSGSDYKDDDDK-NH2; disulfide 2-15), the Kd was above 10000 nM at FGF-R1C ECD; above 10000 nM at FGF-R3C ECD; 1 nM on FGF-R4 ECD (crude T18 selection 1 (1:1:1) peptides, single concentration BLI (Table S4), read-out: KD (4)).
In the case of `CC[C@H](C)[C@@H]1NC(=O)[C@H](Cc2ccccc2)NC(=O)[C@@H]2CCCN2C(=O)[C@H](Cc2ccccc2)NC(=O)[C@H](Cc2c[nH]cn2)NC(=O)[C@H]([C@@H](C)O)NC(=O)[C@H](CC(=O)O)NC(=O)[C@H](Cc2ccccc2)NC(=O)[C@H]([C@@H](C)O)NC(=O)[C@@H](NC(=O)[C@@H](N)CCSC)CSSC[C@@H](C(=O)NCC(=O)N[C@@H](CO)C(=O)NCC(=O)N[C@@H](CO)C(=O)N[C@@H](CC(=O)O)C(=O)N[C@@H](Cc2ccc(O)cc2)C(=O)N[C@@H](CCCCN)C(=O)N[C@@H](CC(=O)O)C(=O)N[C@@H](CC(=O)O)C(=O)N[C@@H](CC(=O)O)C(=O)N[C@@H](CC(=O)O)C(=O)N[C@@H](CCCCN)C(N)=O)NC(=O)[C@H]([C@@H](C)O)NC1=O` (H-MCTFDTHFPFITCGSGSDYKDDDDK-NH2; disulfide 2-13), the dissociation constant Kd is above 10000 nM on FGF-R1C ECD, 287 nM on FGF-R3C ECD and above 10000 nM on FGF-R4 ECD (setting [1]).
Consider `CC[C@H](C)[C@@H]1NC(=O)[C@H](CC(C)C)NC(=O)[C@H](CCCCN)NC(=O)[C@H](CO)NC(=O)[C@H](Cc2c[nH]c3ccccc23)NC(=O)[C@@H](NC(=O)[C@H](CCSC)NC(C)=O)CSSC[C@@H](C(=O)NCC(=O)N[C@@H](CO)C(=O)NCC(=O)N[C@@H](CO)C(=O)N[C@@H](CC(=O)O)C(=O)N[C@@H](Cc2ccc(O)cc2)C(=O)N[C@@H](CCCCN)C(=O)N[C@@H](CC(=O)O)C(=O)N[C@@H](CC(=O)O)C(=O)N[C@@H](CC(=O)O)C(=O)N[C@@H](CC(=O)O)C(=O)N[C@@H](CCCCN)C(N)=O)NC(=O)[C@H](CCC(N)=O)NC(=O)[C@H](CO)NC(=O)[C@H](CC(C)C)NC(=O)[C@H](Cc2ccc(O)cc2)NC(=O)[C@H](Cc2ccc(O)cc2)NC(=O)[C@H](CCCCN)NC(=O)[C@H]([C@@H](C)CC)NC1=O` (Ac-MCWSKLIIKYYLSQCGSGSDYKDDDDK-NH2; disulfide 2-15), for which the Kd on FGF-R1C ECD is above 10000 nM; on FGF-R3C ECD, above 10000 nM; on FGF-R4 ECD it was 16 nM.
In the case of `CC[C@H](C)[C@@H]1NC(=O)[C@@H](NC(=O)[C@H](CCSC)NC(C)=O)CSSC[C@@H](C(=O)NCC(=O)N[C@@H](CO)C(=O)NCC(=O)N[C@@H](CO)C(=O)N[C@@H](CC(=O)O)C(=O)N[C@@H](Cc2ccc(O)cc2)C(=O)N[C@@H](CCCCN)C(=O)N[C@@H](CC(=O)O)C(=O)N[C@@H](CC(=O)O)C(=O)N[C@@H](CC(=O)O)C(=O)N[C@@H](CC(=O)O)C(=O)N[C@@H](CCCCN)C(N)=O)NC(=O)[C@H](CCCNC(=N)N)NC(=O)CNC(=O)[C@H](CCCNC(=N)N)NC(=O)[C@H](CC(C)C)NC(=O)[C@H](C(C)C)NC(=O)[C@H](CCCCN)NC(=O)[C@H](Cc2ccc(O)cc2)NC(=O)[C@H](CC(C)C)NC(=O)[C@H](CC(C)C)NC1=O` (Ac-MCILLYKVLRGRCGSGSDYKDDDDK-NH2; disulfide 2-13), the Kd at FGF-R1C ECD was above 10000 nM; at FGF-R3C ECD it was above 10000 nM; at FGF-R4 ECD (setting [1]) it was 128 nM.
For the molecule `CC[C@H](C)[C@@H]1NC(=O)[C@H](CCCCN)NC(=O)[C@H](Cc2ccc(O)cc2)NC(=O)[C@H](CC(C)C)NC(=O)[C@H]([C@@H](C)CC)NC(=O)[C@H]([C@@H](C)CC)NC(=O)[C@H](CC(N)=O)NC(=O)[C@@H](NC(=O)[C@H](CCSC)NC(C)=O)CSSC[C@@H](C(=O)NCC(=O)N[C@@H](CO)C(=O)NCC(=O)N[C@@H](CO)C(=O)N[C@@H](CC(=O)O)C(=O)N[C@@H](Cc2ccc(O)cc2)C(=O)N[C@@H](CCCCN)C(=O)N[C@@H](CC(=O)O)C(=O)N[C@@H](CC(=O)O)C(=O)N[C@@H](CC(=O)O)C(=O)N[C@@H](CC(=O)O)C(=O)N[C@@H](CCCCN)C(N)=O)NC(=O)[C@H](CCCNC(=N)N)NC(=O)[C@H](CC(N)=O)NC(=O)[C@H](CCCCN)NC(=O)[C@H](CCSC)NC1=O` (Ac-MCNIILYKIMKNRCGSGSDYKDDDDK-NH2; disulfide 2-14), the Kd at FGF-R1C ECD, at FGF-R3C ECD and on FGF-R4 ECD (setting [1]) was above 10000 nM in each case.
For `CSCC[C@H](NC(C)=O)C(=O)N[C@H]1CSSC[C@@H](C(=O)NCC(=O)N[C@@H](CO)C(=O)NCC(=O)N[C@@H](CO)C(=O)N[C@@H](CC(=O)O)C(=O)N[C@@H](Cc2ccc(O)cc2)C(=O)N[C@@H](CCCCN)C(=O)N[C@@H](CC(=O)O)C(=O)N[C@@H](CC(=O)O)C(=O)N[C@@H](CC(=O)O)C(=O)N[C@@H](CC(=O)O)C(=O)N[C@@H](CCCCN)C(N)=O)NC(=O)[C@H](C(C)C)NC(=O)[C@H](CCCNC(=N)N)NC(=O)[C@H](CCSC)NC(=O)[C@H](C(C)C)NC(=O)[C@H](CCCCN)NC(=O)[C@H](Cc2ccc(O)cc2)NC(=O)[C@H](CC(C)C)NC(=O)[C@H](CC(C)C)NC(=O)[C@H](C(C)C)NC(=O)CNC1=O` (Ac-MCGVLLYKVMRVCGSGSDYKDDDDK-NH2; disulfide 2-13), the Kd on FGF-R1C ECD is above 10000 nM; on FGF-R3C ECD, above 10000 nM; at FGF-R4 ECD (setting [1]) it was 124 nM.
